# Measured values: US20250325529A1, “INHIBITORS OF FATTY ACID BINDING PROTEINS (FABPs), METHODS OF USE AND METHODS OF MAKING” (Celloram, inc., priority 2024, published 2025)
# Entries after “also recorded” stand apart in the source; their conditions may differ.
# Legend:
# PPARγ = PPARγ (Homo sapiens (Human), UniProt P37231); experiment: Transcriptional activation assay in COS7 cells, PPARγ; type: cell-based; settings: PPRE luciferase reporter, PD151 and PD152 at 10 μM
# Method: COS-7 were cultured in 6-well plates and co-transfected with either a luciferase reporter driven by 3 copies of a PPRE and expression vector for either PPARδ, PPARα or PPARγ together with a vector harboring cDNA for β-galactosidase, serving as a transfection control. To test whether FABP4 or FABP5 mediate activation of their cognate receptors PPARγ and PPARδ, respectively, cells were also co-transfected with a plasmid harboring sequence of either FABP4 or FABP5. 18 h post-transfection, cells were placed in a serum-free medium and treated with agonist/compound. 18 h. later, cells were lysed, luciferase activity was assayed (Promega, WI, USA) and corrected for transfection efficiency by the activity of β-galactosidase.
# Transcriptional activation assays were carried out utilizing COS7 cells as described above.
# FABP3 = FABP3 (Homo sapiens (Human), UniProt P05413); experiment: Fluorescence (ANS) competition binding assay, FABP3; settings: ANS displacement
# Method: This example illustrates a two-step fluorescence binding assay study used to determine the binding affinity of the various inhibitor compounds disclosed herein with the various FABPs: FABP3, FABP4, FABP5 and FABP7. Further secondary screening studies were carried out for compounds with high binding affinities toward the FABPs and based on their ability to activate the nuclear receptors PPARα, PPARγ, or PPARδ.
# Binding assays for FABP3, FABP4, FABP5 and FABP7 were carried out by fluorescence titrations. His-tagged FABPs were bacterially expressed in E. coli, purified using Ni Sepharose beads, and the equilibrium dissociation constants (Kd) that characterize their interactions with different inhibitor compounds were measured by fluorescence competition assays. The method entails two steps as described in e.g., Lin, Q. et al., “Ligand selectivity of the peroxisome proliferator-activated receptor alpha,” Biochemistry 38, 185-190, doi:10.1021/bi9816094 [pii](1999). In the first step, Kd for the association of the protein with the fluorescent fatty acid probe ANS was measured. Protein (2 μM) was titrated with ANS from a concentrated solution in DMSO. Ligand binding was monitored by following the increase in the fluorescence of the ligand upon binding to the protein, and Kd for the association of ANS with the each FABP was computed from titration curves as described in e.g., Norris, A. W. & Li, E., “Fluorometric titration of the CRABPs,” Methods Mol Biol 89, 123-139 (1998)). In the second step, Kds for binding of non-fluorescent ligands were measured by monitoring their ability to displace ANS in the binding pocket of the protein. Each FABP was precomplexed with ANS at 1:1 molar ratio and titrated with the different compounds whose binding was reflected by a decrease in probe fluorescence. Kds were extracted from the EC50 of the competition curve and the measured Kd for ANS.
# [1] = system: Salmonella typhimurium tester strain TA98; experiment: Ames test (Bacterial Reverse Mutation Test), TA98; type: cell-based
# Method: PD152 (compound 2) was tested for genotoxic and cytotoxic side effects by Ames test. The Ames test is a Bacterial Reverse Mutation Test of mutagenicity that utilizes Salmonella typhimurium tester strains TA98, TA100, TA1535, TA1537 and Escherichia coli tester strain WP2 uvrA (pKM101), both in the presence and absence of S9.
# The compound PD152 was tested at 10 concentrations (0.032-1000 μg/plate) in the presence of, or absence of, the hepatic enzyme S9.
# The aniline FABP4/5 inhibitor compound, 2-((2-((2,4-dichloro-5-isopropoxyphenyl)amino)-2-oxoethyl)thio)-2-methylpropanoic acid (compound “B104” as disclosed in WO2023043803A1) also was tested for genotoxic and cytotoxic side effects by Ames test. […]
# MB-231 xenograft tumors = experiment: TNBC MB-231 xenograft model; type: in vivo, Nu/Nu nude mice; settings: oral 20 or 40 mg/Kg, 5 times a week
# Method: Seven-week-old Nu/Nu athymic female mice were injected subcutaneously into the right flank with 5×10^6 MB-231 cells 1:1 with Matrigel. Once tumors reached ˜50 mm^3 in size, mice were divided into 3 groups (n=5 for each group) and treatment started. Mice were treated by gavage with either vehicle (0.5% methyl cellulose, 1% Tween 80), 20 mg/kg, or 40 mg/kg of PD152 dissolved in vehicle, 5 days a week. Thirty days after treatment started mice were scarified. Statistical significance between the different treatment groups was evaluated using a Student's t-test. The experiment was conducted after approval by the institutional animal care and use committee at Case Western Reserve University.
# TNBC xenograft model was used to test the efficacy of PD152 in suppressing tumors growth in vivo. 5×10^6 MB-231 cells were subcutaneously injected into the right flank of Nu/Nu nude mice and tumor growth was monitored twice a week. Once tumors were established and reached volume of ˜50 mm^3, mice were divided into 3 groups and treatments started. Mice were treated orally by either PD152 (20 mg/Kg, or 40 mg/Kg), or a vehicle 5 times a week.
# [2] = TA98, presence of S9, 0.0312 μg/plate
# [3] = TA98, presence of S9, 0.1 μg/plate
# [4] = TA98, presence of S9, 0.316 μg/plate
# [5] = TA98, presence of S9, 1 μg/plate
# [6] = TA98, presence of S9, 3.16 μg/plate
# [7] = TA98, presence of S9, 10 μg/plate
# [8] = TA98, presence of S9, 31.6 μg/plate
# [9] = TA98, presence of S9, 100 μg/plate
# [10] = TA98, presence of S9, 316 μg/plate
# [11] = TA98, presence of S9, 1000 μg/plate
# PPARγ, sequence (P37231 whole entry, species assumed): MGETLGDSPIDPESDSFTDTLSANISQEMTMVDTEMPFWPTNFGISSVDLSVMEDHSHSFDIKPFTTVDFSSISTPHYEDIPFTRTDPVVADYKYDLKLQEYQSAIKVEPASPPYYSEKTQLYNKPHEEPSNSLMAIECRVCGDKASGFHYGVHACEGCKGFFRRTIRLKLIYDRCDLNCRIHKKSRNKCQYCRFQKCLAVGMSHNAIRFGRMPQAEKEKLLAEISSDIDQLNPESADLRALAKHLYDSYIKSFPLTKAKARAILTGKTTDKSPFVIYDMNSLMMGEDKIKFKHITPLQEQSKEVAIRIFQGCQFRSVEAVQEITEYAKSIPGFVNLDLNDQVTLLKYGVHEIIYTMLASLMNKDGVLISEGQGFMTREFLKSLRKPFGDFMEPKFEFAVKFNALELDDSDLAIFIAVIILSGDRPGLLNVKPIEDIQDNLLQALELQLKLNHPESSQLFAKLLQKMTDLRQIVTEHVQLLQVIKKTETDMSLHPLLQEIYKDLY
# FABP3, sequence (P05413 whole entry, species assumed): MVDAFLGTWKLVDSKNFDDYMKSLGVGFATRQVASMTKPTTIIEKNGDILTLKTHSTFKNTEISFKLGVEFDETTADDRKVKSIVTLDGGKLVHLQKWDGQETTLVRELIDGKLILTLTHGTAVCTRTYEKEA
structure (smiles),measurement,setting,value
"CC(C)Oc1nc(NC(=O)CSCC(=O)O)c(Cl)cc1Cl [PD152, 2-((2-((3,5-dichloro-6-isopropoxypyridin-2-yl)amino)-2-oxoethyl)thio)acetic acid]",Activation of transcription by PPARγ,PPARγ,None of these tested compounds activated; also recorded: none of the tested compounds PD151 and PD152 activated transcription
same,Kd,FABP3,188 nM
same,Fold increase,[1]; [2],1
same,Mean number of revertants,[1]; [2],6
same,Fold increase,[1]; [3],1
same,Mean number of revertants,[1]; [3],5
same,Fold increase,[1]; [4],1
same,Mean number of revertants,[1]; [4],6
same,Fold increase,[1]; [5],1
same,Mean number of revertants,[1]; [5],6
same,Fold increase,[1]; [6],1
same,Mean number of revertants,[1]; [6],6
same,Fold increase,[1]; [7],1
same,Mean number of revertants,[1]; [7],6
same,Fold increase,[1]; [8],1
same,Mean number of revertants,[1]; [8],6
same,Fold increase,[1]; [9],1
same,Mean number of revertants,[1]; [9],6
same,Fold increase,[1]; [10],1
same,Mean number of revertants,[1]; [10],6
same,Fold increase,[1]; [11],1
same,Mean number of revertants,[1]; [11],5
same,Tumor growth (volume over time),MB-231 xenograft tumors; 30 days,growth was completely inhibited
same,Tumor weight at end point,MB-231 xenograft tumors; day 30,significantly lower
